Results taken from ChEMBL document CHEMBL5649166, “RIP3 induces apoptosis independent of pronecrotic kinase activity” (Mol Cell, 2014).

Assays:
[1] = molecular target: MAP kinase-activated protein kinase 3 (Homo sapiens) (UniProt Q16644); experiment: Inhibition of human MAPKAPK3 using KKLNRTLSVA as substrate at 1 uM in presence of 32P-ATP by Hotspot assay relative to control; values are per cent of control
[2] = molecular target: Receptor-type tyrosine-protein kinase FLT3 (Homo sapiens) (UniProt P36888); experiment: Inhibition of human FLT3 using EAIYAAPFAKKK as substrate at 1 uM in presence of 32P-ATP by Hotspot assay relative to control; values are per cent of control
[3] = molecular target: Serine/threonine-protein kinase Nek7 (Homo sapiens) (UniProt Q8TDX7); experiment: Inhibition of human NEK7 using casein as substrate at 1 uM in presence of 32P-ATP by Hotspot assay relative to control; values are per cent of control
[4] = molecular target: Calcium/calmodulin-dependent protein kinase type 1B (Homo sapiens) (UniProt Q6P2M8); experiment: Inhibition of human CAMK1b using KKALRRQETVDAL as substrate at 1 uM in presence of 32P-ATP by Hotspot assay relative to control; values are per cent of control
[5] = molecular target: Protein kinase C alpha type (Homo sapiens) (UniProt P17252); experiment: Inhibition of human PKCa using ERMRPRKRQGSVRRRV as substrate at 1 uM in presence of 32P-ATP by Hotspot assay relative to control; values are per cent of control
[6] = molecular target: Serine/threonine-protein kinase B-raf (Homo sapiens) (UniProt P15056); experiment: Inhibition of human BRAF using MEK1 (K97R) as substrate at 1 uM in presence of 32P-ATP by Hotspot assay relative to control; values are per cent of control
[7] = molecular target: Ephrin type-A receptor 4 (Homo sapiens) (UniProt P54764); experiment: Inhibition of human EPHA4 using poly[Glu:Tyr] (4:1) as substrate at 1 uM in presence of 32P-ATP by Hotspot assay relative to control; values are per cent of control
[8] = molecular target: T1, NUAK family SNF1-like kinase 2 (Homo sapiens) (UniProt Q9H093); experiment: Inhibition of human SNARK/NUAK2 using KKKVSRSGLYRSPSMPENLNRPR as substrate at 1 uM in presence of 32P-ATP by Hotspot assay relative to control; values are per cent of control
T1 sequence (whole entry): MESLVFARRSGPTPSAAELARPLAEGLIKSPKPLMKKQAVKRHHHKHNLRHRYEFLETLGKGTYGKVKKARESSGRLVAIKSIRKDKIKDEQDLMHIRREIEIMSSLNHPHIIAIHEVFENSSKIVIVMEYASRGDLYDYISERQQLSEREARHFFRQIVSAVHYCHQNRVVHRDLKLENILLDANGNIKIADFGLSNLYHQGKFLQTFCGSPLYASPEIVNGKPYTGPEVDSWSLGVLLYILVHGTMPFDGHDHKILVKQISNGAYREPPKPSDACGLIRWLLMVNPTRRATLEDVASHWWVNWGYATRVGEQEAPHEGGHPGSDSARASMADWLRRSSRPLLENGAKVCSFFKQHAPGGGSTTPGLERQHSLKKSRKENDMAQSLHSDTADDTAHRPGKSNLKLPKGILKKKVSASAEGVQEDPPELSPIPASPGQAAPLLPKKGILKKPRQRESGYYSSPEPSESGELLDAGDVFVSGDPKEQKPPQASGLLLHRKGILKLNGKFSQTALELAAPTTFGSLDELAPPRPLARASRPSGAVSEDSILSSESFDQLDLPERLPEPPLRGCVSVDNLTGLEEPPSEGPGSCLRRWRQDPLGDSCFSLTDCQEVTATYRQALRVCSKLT

[9] = molecular target: Fibroblast growth factor receptor 4 (Homo sapiens) (UniProt P22455); experiment: Inhibition of human FGFR4 using poly[Glu:Tyr] (4:1) as substrate at 1 uM in presence of 32P-ATP by Hotspot assay relative to control; values are per cent of control
[10] = molecular target: Mitogen-activated protein kinase kinase kinase 20 (Homo sapiens) (UniProt Q9NYL2); experiment: Inhibition of human ZAK/MLTK using myelin basic protein as substrate at 1 uM in presence of 32P-ATP by Hotspot assay relative to control; values are per cent of control
[11] = molecular target: Serine/threonine-protein kinase 25 (Homo sapiens) (UniProt O00506); experiment: Inhibition of human STK25/YSK1 using myelin basic protein as substrate at 1 uM in presence of 32P-ATP by Hotspot assay relative to control; values are per cent of control
[12] = molecular target: Tyrosine-protein kinase Lyn (Homo sapiens) (UniProt P07948); experiment: Inhibition of human LYN B using poly[Glu:Tyr] (4:1) as substrate at 1 uM in presence of 32P-ATP by Hotspot assay relative to control; values are per cent of control
Tyrosine-protein kinase Lyn (Homo sapiens), sequence (P07948 2-512 limits assumed): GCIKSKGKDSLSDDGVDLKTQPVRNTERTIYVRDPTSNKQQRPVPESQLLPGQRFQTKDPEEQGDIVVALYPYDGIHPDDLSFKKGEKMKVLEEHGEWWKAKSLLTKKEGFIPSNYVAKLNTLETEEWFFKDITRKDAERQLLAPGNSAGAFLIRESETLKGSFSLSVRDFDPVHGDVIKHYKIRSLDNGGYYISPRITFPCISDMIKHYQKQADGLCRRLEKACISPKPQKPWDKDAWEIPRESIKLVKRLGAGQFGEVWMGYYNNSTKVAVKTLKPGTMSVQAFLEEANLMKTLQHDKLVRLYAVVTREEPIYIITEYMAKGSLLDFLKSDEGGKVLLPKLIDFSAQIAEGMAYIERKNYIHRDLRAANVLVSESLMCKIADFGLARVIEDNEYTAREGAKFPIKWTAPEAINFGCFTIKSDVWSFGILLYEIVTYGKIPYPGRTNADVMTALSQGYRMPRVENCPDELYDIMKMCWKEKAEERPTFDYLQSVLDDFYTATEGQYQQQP

Fibroblast growth factor receptor 4 (Homo sapiens), sequence (P22455 22-802 limits assumed): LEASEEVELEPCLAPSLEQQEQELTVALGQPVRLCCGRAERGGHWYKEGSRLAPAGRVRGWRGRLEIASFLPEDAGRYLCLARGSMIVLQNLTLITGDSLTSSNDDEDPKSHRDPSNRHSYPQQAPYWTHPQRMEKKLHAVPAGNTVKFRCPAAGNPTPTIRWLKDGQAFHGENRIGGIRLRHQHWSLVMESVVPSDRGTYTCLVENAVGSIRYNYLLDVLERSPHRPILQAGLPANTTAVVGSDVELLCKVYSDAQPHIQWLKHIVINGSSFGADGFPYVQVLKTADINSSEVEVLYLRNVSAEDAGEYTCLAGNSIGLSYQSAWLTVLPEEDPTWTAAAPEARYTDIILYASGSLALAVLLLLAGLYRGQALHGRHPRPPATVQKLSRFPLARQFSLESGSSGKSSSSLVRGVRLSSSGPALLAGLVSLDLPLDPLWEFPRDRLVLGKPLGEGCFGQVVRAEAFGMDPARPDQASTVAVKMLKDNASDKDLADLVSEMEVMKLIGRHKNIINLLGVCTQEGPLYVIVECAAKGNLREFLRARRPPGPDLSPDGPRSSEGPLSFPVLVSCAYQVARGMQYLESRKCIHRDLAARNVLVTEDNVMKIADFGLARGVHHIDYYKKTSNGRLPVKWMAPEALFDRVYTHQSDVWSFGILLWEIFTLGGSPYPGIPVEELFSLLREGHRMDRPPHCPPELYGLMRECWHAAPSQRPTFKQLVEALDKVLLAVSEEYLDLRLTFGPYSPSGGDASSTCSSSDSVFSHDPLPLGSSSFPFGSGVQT
Serine/threonine-protein kinase Nek7 (Homo sapiens), sequence (Q8TDX7 whole entry, looked up): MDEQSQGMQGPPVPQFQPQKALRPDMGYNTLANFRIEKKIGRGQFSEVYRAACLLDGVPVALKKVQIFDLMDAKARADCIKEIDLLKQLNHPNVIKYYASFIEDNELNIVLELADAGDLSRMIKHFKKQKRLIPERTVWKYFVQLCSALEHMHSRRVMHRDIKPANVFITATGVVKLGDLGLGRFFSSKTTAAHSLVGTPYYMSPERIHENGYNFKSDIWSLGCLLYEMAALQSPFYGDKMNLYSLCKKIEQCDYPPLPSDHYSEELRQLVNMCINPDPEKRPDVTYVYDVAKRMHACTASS
Receptor-type tyrosine-protein kinase FLT3 (Homo sapiens), sequence (P36888 whole entry): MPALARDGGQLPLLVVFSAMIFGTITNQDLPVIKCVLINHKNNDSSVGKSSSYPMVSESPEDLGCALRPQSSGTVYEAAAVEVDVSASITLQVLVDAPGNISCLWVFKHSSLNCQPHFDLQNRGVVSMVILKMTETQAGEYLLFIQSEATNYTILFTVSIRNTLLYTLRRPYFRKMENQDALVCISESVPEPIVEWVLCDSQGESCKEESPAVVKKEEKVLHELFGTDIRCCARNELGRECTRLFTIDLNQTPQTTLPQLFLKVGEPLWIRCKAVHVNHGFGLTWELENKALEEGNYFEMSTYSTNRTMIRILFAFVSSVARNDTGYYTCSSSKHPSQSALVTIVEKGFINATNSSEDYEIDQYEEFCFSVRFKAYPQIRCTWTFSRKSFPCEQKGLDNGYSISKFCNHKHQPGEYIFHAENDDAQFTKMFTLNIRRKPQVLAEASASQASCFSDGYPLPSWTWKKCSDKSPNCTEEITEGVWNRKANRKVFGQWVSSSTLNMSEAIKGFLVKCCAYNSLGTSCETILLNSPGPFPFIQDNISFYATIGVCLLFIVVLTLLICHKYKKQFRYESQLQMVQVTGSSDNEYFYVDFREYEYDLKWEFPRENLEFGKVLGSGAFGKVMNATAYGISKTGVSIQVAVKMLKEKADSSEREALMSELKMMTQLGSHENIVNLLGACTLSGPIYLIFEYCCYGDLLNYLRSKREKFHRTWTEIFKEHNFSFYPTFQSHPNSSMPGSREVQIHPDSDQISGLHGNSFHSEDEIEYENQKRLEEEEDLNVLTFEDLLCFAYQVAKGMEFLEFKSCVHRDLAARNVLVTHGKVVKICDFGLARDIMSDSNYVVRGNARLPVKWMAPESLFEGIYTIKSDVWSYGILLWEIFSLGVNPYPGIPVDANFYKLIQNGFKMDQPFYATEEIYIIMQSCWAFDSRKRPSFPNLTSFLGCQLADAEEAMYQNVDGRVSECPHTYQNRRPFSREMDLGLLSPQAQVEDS
Serine/threonine-protein kinase B-raf (Homo sapiens), sequence (P15056 whole entry): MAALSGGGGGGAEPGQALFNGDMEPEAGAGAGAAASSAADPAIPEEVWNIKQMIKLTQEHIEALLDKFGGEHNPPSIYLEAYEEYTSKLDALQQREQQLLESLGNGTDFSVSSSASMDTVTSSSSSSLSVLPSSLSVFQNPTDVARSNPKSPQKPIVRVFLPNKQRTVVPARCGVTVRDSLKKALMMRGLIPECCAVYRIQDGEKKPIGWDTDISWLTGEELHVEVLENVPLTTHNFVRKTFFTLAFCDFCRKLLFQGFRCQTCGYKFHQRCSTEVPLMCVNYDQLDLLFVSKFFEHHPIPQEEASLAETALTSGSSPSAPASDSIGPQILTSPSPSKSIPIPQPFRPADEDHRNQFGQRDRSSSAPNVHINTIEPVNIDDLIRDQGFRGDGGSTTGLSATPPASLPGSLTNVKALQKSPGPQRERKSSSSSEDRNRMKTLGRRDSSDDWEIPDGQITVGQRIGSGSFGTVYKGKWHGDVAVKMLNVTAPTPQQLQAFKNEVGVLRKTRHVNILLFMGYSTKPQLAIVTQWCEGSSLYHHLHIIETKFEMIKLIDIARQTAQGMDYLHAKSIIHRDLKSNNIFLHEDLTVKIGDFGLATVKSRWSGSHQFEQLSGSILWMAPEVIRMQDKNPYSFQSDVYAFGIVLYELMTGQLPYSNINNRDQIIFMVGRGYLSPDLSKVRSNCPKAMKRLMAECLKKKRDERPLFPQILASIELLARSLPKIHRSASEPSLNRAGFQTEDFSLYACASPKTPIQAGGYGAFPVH
Serine/threonine-protein kinase 25 (Homo sapiens), sequence (O00506 whole entry, looked up): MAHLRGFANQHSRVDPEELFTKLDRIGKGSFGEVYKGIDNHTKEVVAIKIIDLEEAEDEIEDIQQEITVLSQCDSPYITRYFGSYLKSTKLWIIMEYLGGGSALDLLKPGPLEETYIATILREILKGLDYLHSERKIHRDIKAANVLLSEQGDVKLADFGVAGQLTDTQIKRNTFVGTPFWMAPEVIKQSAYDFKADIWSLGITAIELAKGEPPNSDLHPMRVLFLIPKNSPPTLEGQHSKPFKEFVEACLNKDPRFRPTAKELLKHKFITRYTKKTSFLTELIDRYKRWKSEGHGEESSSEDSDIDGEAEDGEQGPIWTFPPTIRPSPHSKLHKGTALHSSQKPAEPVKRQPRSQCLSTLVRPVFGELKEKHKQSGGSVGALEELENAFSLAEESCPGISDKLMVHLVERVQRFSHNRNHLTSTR
MAP kinase-activated protein kinase 3 (Homo sapiens), sequence (Q16644 whole entry, looked up): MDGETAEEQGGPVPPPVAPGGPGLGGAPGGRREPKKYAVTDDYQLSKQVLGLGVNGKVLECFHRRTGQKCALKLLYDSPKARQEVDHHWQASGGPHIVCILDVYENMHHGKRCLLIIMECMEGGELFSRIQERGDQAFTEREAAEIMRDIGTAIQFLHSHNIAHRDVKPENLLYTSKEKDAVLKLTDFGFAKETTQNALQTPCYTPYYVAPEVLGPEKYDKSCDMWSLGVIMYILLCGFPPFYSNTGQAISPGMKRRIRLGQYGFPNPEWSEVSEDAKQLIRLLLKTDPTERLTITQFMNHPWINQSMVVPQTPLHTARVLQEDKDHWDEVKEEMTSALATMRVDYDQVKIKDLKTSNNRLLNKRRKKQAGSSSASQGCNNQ

| SMILES | residual activity [1] | residual activity [2] | residual activity [3] | residual activity [4] | residual activity [5] | residual activity [6] | residual activity [7] | residual activity [8] | residual activity [9] | residual activity [10] | residual activity [11] | residual activity [12] |
| --- | --- | --- | --- | --- | --- | --- | --- | --- | --- | --- | --- | --- |
| Cc1cc(-c2cnc(N)c3c(-c4ccc5scnc5c4)csc23)n(C)n1 | 90.7% | 48% | 94.9% | 98.5% | 80.8% | 79.6% | 48.9% | 95.9% | 47.4% | 21.2% | 106% | 14% |
| CC(C)S(=O)(=O)c1ccc2nccc(Nc3ccc4scnc4c3)c2c1 | 98.9% | 87.9% | 95.6% | 87.8% | 80.2% | 90.2% | 70.9% | 108% | 77.6% | 94.5% | 98.8% | 74.6% |
| CNC(=O)c1ccc2c(c1)ncn2-c1ccc(CC(=O)OC(C)(C)C)cc1 | 98% | 16% | 91.5% | 90.2% | 107% | 96.1% | 95.5% | 89.7% | 93.4% | 41.7% | 104% | 89.2% |
